{"source": "patent US9637471B2", "about": "“Hydroxyindalpine derivatives and their medical use” (Technische Universitat Munchen, priority 2013, dated 2017)", "key": {"[1]": {"tested_on": "circular muscle strips from the guinea pig stomach", "assay": "Nerve mediated muscle responses to electrical field stimulation (EFS) in circular muscle strips, organ bath", "type": "cell-based", "settings": "10 μM in organ bath, EFS after 20 min", "method": "The effects of 5-BOIP and homo-5-BOIP were tested in tissue preparations from the guinea pig stomach. After sacrificing the guinea pigs, the stomach was removed and immediately placed in ice-cold oxygenated Krebs solution. The stomach was opened along the greater curvature, thoroughly washed and pinned mucosal side up in Sylgard-coated Petri dishes. The mucosa was then carefully removed. Muscle strips (1.5 cm^2) were cut parallel to the circular muscle and mounted in 25 ml organ baths where they were maintained in oxygenated Krebs solution at 37° C. One edge of each muscle strip was attached to an isometric tension transducer (PowerLab, AD Instruments, Spechbach, Germany).\nAfter mounting in the organ baths, tissues were equilibrated with a preload set at 15 mN for 45 min. Then, electrical field stimulations (EFS) were performed (constant current, 100 mA, pulse frequency 10 Hz, pulse width of 0.5 ms, 10 s). With the chosen parameters for the EFS, only the neuronal tissue in the preparation was stimulated without having a direct effect on the smooth muscle. […]\nAfter reaching stable responses to the EFS, 5-BOIP and homo-5-BOIP were added to the organ baths at a final concentration of 10 μM. […] The responses to the EFS under control conditions and in the presence of 5-BOIP or homo-5-BOIP were analyzed later."}, "[2]": {"assay": "Retention of activity after storage (chemical stability)", "type": "physicochemical", "settings": "storage for 15 months as a solid at 4° C. or in solution frozen at −20° C."}, "5-HT1P receptor": {"tested_on": "5-HT1P receptor", "assay": "Neuronal tissue assay: voltage-sensitive dye neuroimaging of human submucous plexus preparations", "type": "cell-based", "method": "The effect of 5-BOIP was tested on freshly dissected submucous plexus preparations from surgical resections of human intestine. Samples were taken from macroscopically unaffected areas. Procedures were approved by the ethics committees of the Technical University Munich (1748/07 and 2595/09). Segments were dissected in ice cold Krebs solution to obtain mucosa/submucosa preparations containing the inner submucous plexus preparations for the imaging experiments.\nIn order to image the activity of enteric neurons using voltage sensitive dyes, the human submucous plexus preparations were placed into a recording chamber which was continuously perfused at 37° C. with oxygenated Krebs solution containing 117 mM NaCl, 4.7 mM KCl, 1.2 mM MgCl2, 1.2 mM NaH2PO4, 20 mM NaHCO3, 2.5 mM CaCl2, 11 mM glucose (pH 7.4). The neuroimaging set-up allowed to monitor membrane potential changes and changes in intracellular Ca^2+ [Ca]i transients in all cells of a given ganglion. To study membrane potential changes, individual ganglia were stained with the voltage-sensitive dye Di-8-ANEPPS (20 μM; Molecular Probes, Eugene, Oreg., USA) via intraganglionic application through a microejection pipette.\nThe imaging experiments were conducted on an inverted microscope (Zeiss Axio Observer.A1; Munich, Germany) equipped with the NeuroCCD system, consisting of a fast CCD camera (80×80 pixels) and the Neuroplex software for data acquisition and analysis (RedShirtImaging, Decatur, Ga., USA). To detect Di-8-ANEPPS a modified Cy3 filterset (545±15 nm excitation, 565 nm dichroic mirror, 580 nm barrier; Ahf Analysentechnik, Tübingen, Germany) was used. A green LED (LE T S2W, Osram, Munich, Germany) was used to excite Di-8-ANEPPS. Visualization of the ganglia and recording of signals were done with a ×100 or ×40 objective (NA=1.35, Olympus, Hamburg, Germany). The imaging set-up allowed to measure relative changes in the fluorescence (ΔF/F), which is for Di-8-ANEPPS linearly related to changes in the membrane potential. Frame rate to detect action potentials was 1 kHz. The overlay of signals and ganglion images allowed the analysis of the responses of individual cells.\n5-BOIP was prepared at a stock solution of 100 mM. For controlled local application fine glass capillaries were filled with 50 μM 5-BOIP and positioned just above a ganglion. 5-BOIP was microejected for 400 ms via pressure pulse onto the ganglion. […] Since G protein coupled receptor activation takes several seconds, the recordings were started after a period of 2 s. In preliminary experiments it was verified that there was no immediate effect of 5-BOIP that would begin with the ejection application or directly thereafter.\nThe specificity of 5-BOIP effects was tested against the 5-HT1 antagonist 5-hydroxytryptophan dipeptide (5-HTP-DP). […]"}, "mouse isolated colon": {"tested_on": "mouse isolated colon", "settings": "cited from earlier work"}}}
{"smiles": "c1ccc(COc2ccc3[nH]cc(CCCC4CCNCC4)c3c2)cc1", "note": "[homo-5-BOIP, 5-(benzyloxy)-3-(3-[piperidin-4-yl]propyl)-1H-indole]", "values": [{"measurement": "effect on the \"on contraction\" in response to the EFS", "setting": "[1]", "result": "clearly reduced"}]}
{"smiles": "c1ccc(COc2ccc3[nH]cc(CCC4CCNCC4)c3c2)cc1", "note": "[5-BOIP, 5-(benzyloxy)-3-(2-(piperidin-4-yl)ethyl)-1H-indole]", "values": [{"measurement": "activity after storage", "setting": "[2]", "result": "retains activity"}, {"measurement": "effect on the \"on contraction\" in response to the EFS", "setting": "[1]", "result": "clearly reduced"}, {"measurement": "action potential (spike) frequency", "setting": "5-HT1P receptor; 5-BOIP alone, 50 μM in capillary microejected 400 ms onto ganglion, median (10%/90%)", "result": "1.6 (1.0/2.1) Hz"}, {"measurement": "effect on human enteric nerve cells when applied to the ganglia", "setting": "5-HT1P receptor; 5-BOIP applied to ganglia, human submucous plexus", "result": "induces action potentials"}, {"measurement": "action potential (spike) frequency in presence of 5-HT1P receptor antagonist 5-HTP-DP", "setting": "5-HT1P receptor; 5-BOIP during 20 min bath application of 10 μM 5-HTP-DP, median (10%/90%)", "result": "0 (0/0.5) Hz"}, {"measurement": "action potential (spike) frequency after washing out the antagonist 5-HTP-DP", "setting": "5-HT1P receptor; 5-BOIP freshly added after washout of 5-HTP-DP, median (10%/90%)", "result": "1.0 (0.5/1.6) Hz"}]}
{"smiles": "Oc1ccc2[nH]cc(CCC3CCNCC3)c2c1", "note": "[5-OHIP, 5-hydroxyindalpine]", "values": [{"measurement": "activity after storage", "setting": "[2]", "result": "would lose its activity"}, {"measurement": "effect on threshold pressure required to trigger the peristaltic reflex", "setting": "mouse isolated colon", "result": "reduce the threshold pressure"}, {"measurement": "effect on peristalsis", "setting": "mouse isolated colon; concentration dependent", "result": "accelerate peristalsis"}]}
